# System: patients with MDD
# Test: Phase 2 sub-analysis, MADRS and SDQ composite indexes and single functional items
# Type: in vivo, human
# Description: The present inventors selected items from the MADRS and SDQ scales and created Composite Indexes of cognitive and motivational functions: Cognitive composite index: [MADRS 6 (concentration difficulties), SDQ 16 (wakefulness), SDQ 22 (slowed down feeling, SDQ 35 (ability to focus), SDQ 36 (ability to remember), SDQ 37 (ability to find words), SDQ 38 (sharpness), SDQ 39 (ability to make decisions), SDQ 42 (ability to work)]; Motivation-energy composite index: [MADRS 7 (lassitude), SDQ 7 (motivation), SDQ 20 (energy)]; Mood composite index: [MADRS 1 (reported sadness), SDQ 1, 2, 3 (mood)]; Sleep composite index: [MADRS 4 (reduced sleep), SDQ 13 (ability to fall asleep), SDQ 14 (ability to stay asleep in the middle of the night), SDQ 15 (ability to stay asleep around the time before waking up)]; The present inventors also separately analyzed two additional single functional items part of the SDQ. 1) Social function, single question (SDQ 41, social functioning); 2) sexual function, single question (SDQ 40, sexual functioning).
# Analysis of Change from Baseline at different times after the onset of treatment: The likelihood-based method applied is the Mixed-Effect Model Repeated Measures (MMRM) model with fixed-effect terms for treatment, visit (Day 2, Day 4, Day 7, Day 14) and the interaction between treatment and visit. The LS means and the LS means difference (the difference between REL-1017 and Placebo in the LS means) are provided along with the p-value for testing the hypothesis of no difference and the Cohen's effect size (calculated based on the LS mean differences and the pooled standard deviations). The 25 mg and 50 mg dosages are considered separately and combined: 25 mg+50 mg, Combined Treatment Group (CTG).
# [1] = 25 mg, day not given (first set)
# [2] = 50 mg, day not given (first set)
# [3] = CTG 25 mg+50 mg, day not given (first set)
compound,measurement,setting,value
"CCC(=O)C(C[C@H](C)N(C)C)(c1ccccc1)c1ccccc1 [Dextromethadone, dextromethadone]","Social function (SDQ 41), LS mean difference vs placebo","25 mg, Day 7",−1.07
same,"Social function (SDQ 41), effect size","25 mg, Day 7",0.65
same,"Sexual function (SDQ 40), LS mean difference vs placebo","25 mg, Day 14",−1.32
same,"Sexual function (SDQ 40), effect size","25 mg, Day 14",0.93
same,"Social function (SDQ 41), LS mean difference vs placebo","25 mg, Day 14","−1,246"
same,"Social function (SDQ 41), effect size","25 mg, Day 14",0.99
same,"Sexual function (SDQ 40), LS mean difference vs placebo",[1],−0.66
same,"Sexual function (SDQ 40), effect size",[1],0.48
same,"Social function (SDQ 41), LS mean difference vs placebo","50 mg, Day 7",−1
same,"Social function (SDQ 41), effect size","50 mg, Day 7",0.57
same,"Sexual function (SDQ 40), LS mean difference vs placebo","50 mg, Day 14",−0.4
same,"Sexual function (SDQ 40), effect size","50 mg, Day 14",0.29
same,"Social function (SDQ 41), effect size","50 mg, Day 14",0.98
same,"Sexual function (SDQ 40), LS mean difference vs placebo",[2],−0.28
same,"Sexual function (SDQ 40), effect size",[2],0.19
same,"Social function (SDQ 41), effect size","CTG 25 mg+50 mg, Day 7",0.61
same,"Sexual function (SDQ 40), LS mean difference vs placebo","CTG 25 mg+50 mg, Day 14",−0.86
same,"Sexual function (SDQ 40), effect size","CTG 25 mg+50 mg, Day 14",0.59
same,"Social function (SDQ 41), LS mean difference vs placebo","CTG 25 mg+50 mg, Day 14",−1.19
same,"Social function (SDQ 41), effect size","CTG 25 mg+50 mg, Day 14",0.99
same,"Sexual function (SDQ 40), LS mean difference vs placebo",[3],−0.46
same,"Sexual function (SDQ 40), effect size",[3],0.32

# Source: US20230017786A1, “DEXTR[…] A DISEASE-MODIFYING TREATMENT FOR NEUROPSYCHIATRIC DISORDERS AND DISEASES” (priority 2020, published 2023)
